Read-outs that look alike come from different tables or passages of the source. Bridge positions count the residues as written; N and C are the ends. Side chains are listed from the residue outwards. Peptide text beside a SMILES is read from it. * marks the point of attachment. Butanoyl(4-(4-I-phenyl)) = O=C(CCCc1ccc(I)cc1)*; PEG2 = NCCOCCOCCC(=O)O
Columns and labels:
integrin αvβ6 [1] = target: T1, integrin αvβ6 (Homo sapiens, UniProt P06756+P18564); test: ELISA competition assay, integrin αvβ6 binding to LAP; conditions: mean
integrin αvβ8 [2] = target: T2, integrin αvβ8 (Homo sapiens, UniProt P06756+P26012); test: ELISA competition assay, integrin αvβ8 binding to LAP
integrin αvβ3 = integrin αvβ3 (Homo sapiens, UniProt P05106+P06756); test: ELISA competition assay, integrin αvβ3; type: binding
integrin αvβ1 = integrin αvβ1 (Homo sapiens, UniProt P05556+P06756); test: ELISA competition assay, integrin αvβ1; type: binding
integrin αvβ5 = integrin αvβ5 (Homo sapiens, UniProt P06756+P18084); test: ELISA competition assay, integrin αvβ5; type: binding
integrin α5β1 = integrin α5β1 (Homo sapiens, UniProt P05556+P08648); test: ELISA competition assay, integrin α5β1; type: binding
integrin α8β1 = integrin α8β1 (Homo sapiens, UniProt P05556+P53708); test: ELISA competition assay, integrin α8β1; type: binding
Mouse αvβ6 = target: T3, Mouse αvβ6 (Mus musculus, UniProt P43406+Q9Z0T9); test: ELISA competition assay, mouse integrin αvβ6; type: binding
T3 sequence (P43406 31-988 limits assumed): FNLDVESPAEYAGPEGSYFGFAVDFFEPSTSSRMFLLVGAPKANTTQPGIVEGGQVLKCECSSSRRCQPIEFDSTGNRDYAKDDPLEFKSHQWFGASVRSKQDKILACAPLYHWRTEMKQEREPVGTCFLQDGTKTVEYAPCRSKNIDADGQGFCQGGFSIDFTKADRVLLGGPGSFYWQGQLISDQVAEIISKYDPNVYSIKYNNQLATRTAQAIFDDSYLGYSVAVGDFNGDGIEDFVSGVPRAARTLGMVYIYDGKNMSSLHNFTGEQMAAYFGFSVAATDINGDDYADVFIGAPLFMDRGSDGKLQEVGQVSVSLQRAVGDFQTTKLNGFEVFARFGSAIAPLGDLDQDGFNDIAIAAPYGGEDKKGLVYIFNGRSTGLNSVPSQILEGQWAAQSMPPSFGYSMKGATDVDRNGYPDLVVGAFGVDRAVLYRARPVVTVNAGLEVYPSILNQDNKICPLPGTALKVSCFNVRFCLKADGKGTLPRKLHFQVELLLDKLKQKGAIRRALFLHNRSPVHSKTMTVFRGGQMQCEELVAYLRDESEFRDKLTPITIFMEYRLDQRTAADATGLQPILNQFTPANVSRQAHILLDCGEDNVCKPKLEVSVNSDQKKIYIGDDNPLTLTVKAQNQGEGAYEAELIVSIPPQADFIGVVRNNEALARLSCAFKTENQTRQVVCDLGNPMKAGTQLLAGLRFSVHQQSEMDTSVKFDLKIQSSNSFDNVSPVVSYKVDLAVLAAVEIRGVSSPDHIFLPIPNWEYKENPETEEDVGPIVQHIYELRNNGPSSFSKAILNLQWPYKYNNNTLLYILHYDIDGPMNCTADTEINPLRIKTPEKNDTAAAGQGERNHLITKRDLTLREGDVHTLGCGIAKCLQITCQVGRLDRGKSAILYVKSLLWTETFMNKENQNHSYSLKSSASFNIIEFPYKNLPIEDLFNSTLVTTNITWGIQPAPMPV
T3 sequence (Q9Z0T9 22-707 limits assumed): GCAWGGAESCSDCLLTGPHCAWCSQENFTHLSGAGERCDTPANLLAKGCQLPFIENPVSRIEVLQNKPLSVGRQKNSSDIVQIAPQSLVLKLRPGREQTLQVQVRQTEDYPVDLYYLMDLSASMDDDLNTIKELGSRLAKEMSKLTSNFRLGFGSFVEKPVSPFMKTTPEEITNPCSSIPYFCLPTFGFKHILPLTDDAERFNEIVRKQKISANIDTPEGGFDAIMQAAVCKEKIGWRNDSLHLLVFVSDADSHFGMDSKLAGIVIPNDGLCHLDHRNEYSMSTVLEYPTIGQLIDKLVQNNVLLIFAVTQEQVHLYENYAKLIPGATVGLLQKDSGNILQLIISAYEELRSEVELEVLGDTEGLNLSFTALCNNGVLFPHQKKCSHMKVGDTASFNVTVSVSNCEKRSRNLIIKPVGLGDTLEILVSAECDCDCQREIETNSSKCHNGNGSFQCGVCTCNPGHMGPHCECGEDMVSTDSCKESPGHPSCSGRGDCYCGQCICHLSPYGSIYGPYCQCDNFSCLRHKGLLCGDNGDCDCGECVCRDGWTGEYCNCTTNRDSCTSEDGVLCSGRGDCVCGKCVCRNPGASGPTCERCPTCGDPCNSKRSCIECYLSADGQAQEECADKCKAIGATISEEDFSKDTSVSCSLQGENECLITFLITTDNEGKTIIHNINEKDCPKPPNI

integrin αvβ6 [3] = target: T1, integrin αvβ6; test: AlphaLISA competition assay vs LAP, biotinylated αvβ6; type: binding
integrin αvβ8 [4] = target: T2, integrin αvβ8; test: AlphaLISA competition assay vs LAP, biotinylated αvβ8; type: binding
integrin αIIbβ3 = target: T4, integrin αIIbβ3 (Homo sapiens, UniProt P05106+P08514); test: ELISA competition assay, integrin αIIbβ3; type: binding
T4 sequence (P08514 32-993 limits assumed): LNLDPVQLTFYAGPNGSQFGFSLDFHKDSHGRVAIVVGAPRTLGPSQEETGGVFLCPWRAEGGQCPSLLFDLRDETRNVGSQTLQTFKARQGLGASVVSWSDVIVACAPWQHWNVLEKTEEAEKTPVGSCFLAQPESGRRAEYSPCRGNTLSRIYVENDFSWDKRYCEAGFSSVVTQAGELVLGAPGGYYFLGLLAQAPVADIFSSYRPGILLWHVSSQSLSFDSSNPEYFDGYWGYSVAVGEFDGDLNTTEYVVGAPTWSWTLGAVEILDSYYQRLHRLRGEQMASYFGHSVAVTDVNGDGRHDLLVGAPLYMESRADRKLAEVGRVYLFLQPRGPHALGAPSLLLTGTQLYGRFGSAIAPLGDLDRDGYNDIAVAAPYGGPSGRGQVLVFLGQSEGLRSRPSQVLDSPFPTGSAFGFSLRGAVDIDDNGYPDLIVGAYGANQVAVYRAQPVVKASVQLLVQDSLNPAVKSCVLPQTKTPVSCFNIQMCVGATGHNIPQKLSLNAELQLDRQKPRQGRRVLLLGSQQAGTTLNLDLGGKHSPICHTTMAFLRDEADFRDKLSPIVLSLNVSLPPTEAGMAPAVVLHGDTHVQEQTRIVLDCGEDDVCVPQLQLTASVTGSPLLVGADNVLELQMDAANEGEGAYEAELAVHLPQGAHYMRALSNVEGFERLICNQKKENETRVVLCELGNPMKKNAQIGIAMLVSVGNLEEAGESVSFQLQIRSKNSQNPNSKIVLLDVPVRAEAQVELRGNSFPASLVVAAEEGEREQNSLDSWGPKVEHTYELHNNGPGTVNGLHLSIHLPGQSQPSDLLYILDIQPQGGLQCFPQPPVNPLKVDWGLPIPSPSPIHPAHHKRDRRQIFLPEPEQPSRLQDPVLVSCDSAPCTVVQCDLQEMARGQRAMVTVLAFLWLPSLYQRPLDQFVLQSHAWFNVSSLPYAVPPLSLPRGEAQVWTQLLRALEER
T4 sequence (P05106 27-718 limits assumed): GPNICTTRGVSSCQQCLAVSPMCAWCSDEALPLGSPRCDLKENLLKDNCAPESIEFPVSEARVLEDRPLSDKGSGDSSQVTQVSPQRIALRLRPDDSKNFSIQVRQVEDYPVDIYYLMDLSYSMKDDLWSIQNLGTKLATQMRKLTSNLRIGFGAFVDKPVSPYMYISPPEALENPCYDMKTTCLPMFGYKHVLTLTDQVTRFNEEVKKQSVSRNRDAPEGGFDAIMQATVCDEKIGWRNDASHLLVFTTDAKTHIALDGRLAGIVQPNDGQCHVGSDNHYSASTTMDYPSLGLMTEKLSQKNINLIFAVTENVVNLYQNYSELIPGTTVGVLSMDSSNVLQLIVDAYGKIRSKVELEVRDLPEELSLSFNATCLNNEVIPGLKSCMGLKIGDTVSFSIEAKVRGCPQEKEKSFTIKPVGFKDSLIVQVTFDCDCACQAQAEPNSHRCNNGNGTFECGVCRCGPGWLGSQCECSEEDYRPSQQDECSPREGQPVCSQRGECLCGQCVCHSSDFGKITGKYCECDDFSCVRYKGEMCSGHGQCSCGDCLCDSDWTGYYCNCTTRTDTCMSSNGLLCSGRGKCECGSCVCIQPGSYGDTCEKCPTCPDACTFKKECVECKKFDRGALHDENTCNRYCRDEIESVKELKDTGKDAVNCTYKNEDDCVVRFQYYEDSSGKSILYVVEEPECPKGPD

[5] = αvβ6 IC50, ELISA competition vs LAP, n ≥ 3

SMILES	IC50 (integrin αvβ6 [1]; [5])	IC50 (integrin αvβ8 [2])	IC50 (integrin αvβ3)	IC50 (integrin αvβ1)	IC50 (integrin αvβ5)	IC50 (integrin αIIbβ3)	IC50 (integrin α5β1)	IC50 (integrin α8β1)	also measured
COc1ccc([C@H](CC(=O)O)N2CCN(CCCc3ccc4c(n3)NCCC4)C2=O)cn1 [MK-0429, reference compound]									IC50 (integrin αvβ6 [1]; read-out: Human αvß6 IC50, ELISA run in triplicate, Table S1): 1 nM; IC50 (integrin αvβ6 [1]; read-out: αvβ6 IC50, ELISA competition vs LAP, n ≥ 3): 1.3 nM; IC50 (integrin αvβ8 [2]; read-out: αvβ8 IC50, ELISA competition vs LAP, mean, n ≥ 3): 0.7 nM; IC50 (integrin αvβ3; read-out: αvβ3 IC50, ELISA competition, mean, n ≥ 3): 0.7 nM; IC50 (integrin αvβ1; read-out: αvβ1 IC50, ELISA competition): 1 nM; IC50 (integrin αvβ5; read-out: αvβ5 IC50, ELISA competition): 0.08 nM; IC50 (integrin α5β1; read-out: α5β1 IC50, ELISA competition): 18 nM; IC50 (integrin α8β1; read-out: α8β1 IC50, ELISA competition): 9 nM; IC50 (Mouse αvβ6; read-out: Mouse αvß6 IC50, ELISA run in triplicate, mean, Table S1): 2 nM
CC[C@H](C)[C@H](NC(=O)[C@H](CC(C)C)NC(=O)[C@H](CC(=O)O)NC(=O)CNC(=O)[C@H](CCCNC(=N)N)NC(=O)[C@H](CCC(N)=O)NC(=O)[C@H](Cc1ccccc1)NC(=O)[C@H](Cc1ccc(O)cc1)NC(=O)[C@@H]1CCC(=O)NCC(=O)NCC(=O)N[C@@H](C)C(=O)NCC(=O)N[C@@H](Cc2c[nH]cn2)C(=O)N[C@@H](C(C)C)C(=O)N2CCC[C@H]2C(=O)N1)C(=O)N[C@@H](CO)C(=O)N[C@@H](Cc1ccccc1)C(=O)N[C@@H](Cc1ccc(O)cc1)C(=O)NCC(=O)O [lassotide 21] (GGAGHVPEYFQRGDLISFYG-OH; lactam N-8; C-terminus assumed)									IC50 (integrin αvβ6 [1]; Human αvß6 IC50, ELISA run in triplicate, Table S1): 40 nM; IC50 (Mouse αvβ6): 44 nM; IC50 (integrin αvβ6 [3]): 16 nM; IC50 (integrin αvβ8 [4]): 39 nM
CC(C)C[C@H](NC(=O)[C@H](CC(=O)O)NC(=O)CNC(=O)[C@H](CCCNC(=N)N)NC(=O)[C@@H](NC(=O)[C@H](Cc1ccccc1)NC(=O)[C@H](Cc1ccc(O)cc1)NC(=O)[C@@H]1CCC(=O)NCC(=O)NCC(=O)N[C@@H](CCCCN)C(=O)NCC(=O)N[C@@H](Cc2c[nH]cn2)C(=O)N[C@@H](C(C)C)C(=O)N2CCC[C@H]2C(=O)N1)C(C)C)C(=O)N[C@@H](CCC(N)=O)C(=O)N[C@@H](CO)C(=O)N[C@@H](Cc1ccccc1)C(=O)N[C@@H](Cc1ccc(O)cc1)C(=O)NCC(=O)O [lassotide 37] (GGKGHVPEYFVRGDLQSFYG-OH; lactam N-8; C-terminus assumed)	3.1 nM	9 nM	186 nM	21 nM	> 10000 nM	394 nM	944 nM	> 10000 nM	
CC(C)C[C@H](NC(=O)[C@H](CC(=O)O)NC(=O)CNC(=O)[C@H](CCCNC(=N)N)NC(=O)[C@@H](NC(=O)[C@H](Cc1ccccc1)NC(=O)[C@H](Cc1ccc(O)cc1)NC(=O)[C@@H]1CCC(=O)NCC(=O)NCC(=O)N[C@@H](CCCCNC(=O)CCOCCOCCNC(=O)CCCc2ccc(I)cc2)C(=O)NCC(=O)N[C@@H](Cc2c[nH]cn2)C(=O)N[C@@H](C(C)C)C(=O)N2CCC[C@H]2C(=O)N1)C(C)C)C(=O)N[C@@H](CCC(N)=O)C(=O)N[C@@H](CO)C(=O)N[C@@H](Cc1ccccc1)C(=O)N[C@@H](Cc1ccc(O)cc1)C(=O)NCC(=O)O [lassotide 48] (GGK([PEG2-Butanoyl(4-(4-I-phenyl))])GHVPEYFVRGDLQSFYG-OH; lactam N-8; C-terminus assumed)	0.7 nM	0.8 nM	315 nM	46 nM	> 10000 nM	446 nM	2590 nM	> 10000 nM	

Source: doi:10.1101/2025.01.28.635346v1 (bioRxiv, 2025)
